Data set [1] deals with blood glucose concentration of sucrose-fed rats. Briefly: Action on the blood glucose concentration of sucrose-fed rats. It counts as in vivo, male Wistar rats. To be noted: for Blood glucose: 2 g/kg sucrose, mean ± SEM, n = 7. The source says:
(§1) In order to test the pharmacological action of the α-glucosidase inhibitors, unfed, male Wistar rats weighing between 200 and 250 g were given orally an inhibitor W-46 H or W-46 P according to the invention together with 2 g of starch or sucrose per kg of body weight as a suspension in ®Tylose (methylhydroxyethylcellulose).
(§2) In these investigations, the values collated in Tables 1 (action on the blood glucose concentration of starch-fed rats) and 2 (action on the blood glucose concentration of sucrose-fed rats) were determined for inhibitor W-46 H.
(§3) A limiting value of 0.27 mg/kg of rat is calculated from the values given in Table 1 and a limiting value of 1.29 mg/kg of rat from the values given in Table 2 (the limiting value of the active ingredient is taken to mean the amount per kg of experimental animal at whose administration a clear action can still be seen after one hour).

For data set [2], the target named is T1, saccharase (disaccharidases from the small intestine mucosa) (Homo sapiens, UniProt P14410).
T1 construct: from tissue
T1 sequence (P14410 whole entry): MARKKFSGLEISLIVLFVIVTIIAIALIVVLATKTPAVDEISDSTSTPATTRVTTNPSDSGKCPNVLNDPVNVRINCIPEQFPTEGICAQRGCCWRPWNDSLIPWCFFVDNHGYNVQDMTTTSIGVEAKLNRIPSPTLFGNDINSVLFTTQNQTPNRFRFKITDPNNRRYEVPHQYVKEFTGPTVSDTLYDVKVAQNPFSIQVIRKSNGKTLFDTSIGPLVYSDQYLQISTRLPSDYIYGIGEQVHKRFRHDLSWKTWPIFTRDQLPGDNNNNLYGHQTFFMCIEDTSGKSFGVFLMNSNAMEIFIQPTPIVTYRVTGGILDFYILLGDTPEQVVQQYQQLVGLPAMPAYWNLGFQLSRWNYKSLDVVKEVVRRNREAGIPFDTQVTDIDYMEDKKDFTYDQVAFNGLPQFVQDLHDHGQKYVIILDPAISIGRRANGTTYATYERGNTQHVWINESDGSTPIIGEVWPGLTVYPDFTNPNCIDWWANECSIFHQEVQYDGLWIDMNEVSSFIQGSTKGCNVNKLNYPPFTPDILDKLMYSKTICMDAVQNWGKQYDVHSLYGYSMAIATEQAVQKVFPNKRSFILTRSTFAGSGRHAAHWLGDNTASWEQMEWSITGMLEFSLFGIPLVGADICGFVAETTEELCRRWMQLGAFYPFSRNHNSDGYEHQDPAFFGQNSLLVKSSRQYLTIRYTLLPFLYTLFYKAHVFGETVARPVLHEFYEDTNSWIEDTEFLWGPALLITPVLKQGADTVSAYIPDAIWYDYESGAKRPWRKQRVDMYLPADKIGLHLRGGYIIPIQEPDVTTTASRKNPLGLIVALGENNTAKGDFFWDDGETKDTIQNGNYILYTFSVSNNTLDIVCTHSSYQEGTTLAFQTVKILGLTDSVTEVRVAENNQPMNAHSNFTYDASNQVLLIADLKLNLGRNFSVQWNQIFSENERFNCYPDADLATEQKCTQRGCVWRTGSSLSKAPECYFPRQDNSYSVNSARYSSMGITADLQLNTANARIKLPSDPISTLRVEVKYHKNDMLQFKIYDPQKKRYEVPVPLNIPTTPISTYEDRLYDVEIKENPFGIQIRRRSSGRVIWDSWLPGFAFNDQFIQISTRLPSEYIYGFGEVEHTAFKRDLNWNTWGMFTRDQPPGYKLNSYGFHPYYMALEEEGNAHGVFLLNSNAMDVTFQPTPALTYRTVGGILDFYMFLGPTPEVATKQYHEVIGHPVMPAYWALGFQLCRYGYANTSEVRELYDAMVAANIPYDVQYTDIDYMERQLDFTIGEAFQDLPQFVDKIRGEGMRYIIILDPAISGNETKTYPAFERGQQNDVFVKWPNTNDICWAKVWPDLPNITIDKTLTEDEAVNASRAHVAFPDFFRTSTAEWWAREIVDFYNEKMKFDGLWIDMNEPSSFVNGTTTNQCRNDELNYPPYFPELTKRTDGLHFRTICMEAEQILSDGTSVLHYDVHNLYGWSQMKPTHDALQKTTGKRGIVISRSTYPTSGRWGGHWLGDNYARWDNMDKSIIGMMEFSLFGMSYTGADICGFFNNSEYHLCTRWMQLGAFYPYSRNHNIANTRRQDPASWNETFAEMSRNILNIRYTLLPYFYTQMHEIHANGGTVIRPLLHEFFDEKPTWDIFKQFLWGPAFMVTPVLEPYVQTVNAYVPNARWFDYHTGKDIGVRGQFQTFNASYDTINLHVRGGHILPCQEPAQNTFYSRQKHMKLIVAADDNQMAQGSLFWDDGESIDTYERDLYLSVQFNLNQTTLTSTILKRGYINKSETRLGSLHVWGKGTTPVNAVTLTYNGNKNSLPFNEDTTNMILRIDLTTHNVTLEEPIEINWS
In words: Saccharase test (inhibition of saccharase, hexokinase/glucose-6-phosphate dehydrogenase method). It counts as biochemical. To be noted: for specific activity, saccharase inhibitor units (SIU) per mg: 1 SIU = amount inhibiting two saccharase units to 50%. On the procedure: (§4) The specific activities are 4×10^4 α-amylase inhibitor units (AIU) per mg and 1×10^4 saccharase inhibitor unit (SIU) per mg respectively for W-46 H, and 1×10^4 AIU per mg and 3×10^4 SIU per mg respectively for the inhibitor W-46 P. The activities were determined in the following tests:
One saccharase inhibitor unit (SIU) is defined as the amount of inhibitor which is capable of inhibiting to 50% two saccharase units (SU) under the test conditions. According to international agreement, one SU is the amount of enzyme which cleaves 1 μequivalent of glycoside bonds in saccharose in one minute. The μgram-equivalents of cleaved glucoside bonds are determined photometrically using the hexokinase/glucose-6-phosphate dehydrogenase method as 2 μgram equivalents. The data are calculated as μmoles of hexoses, determined with reference to a glucose calibration curve.
The tests were carried out according to H. U. Bergmeyer, described in "Methods of Enzymatic Analysis", 3rd edition, Verlag Chemie, Weinheim, 1984, pages 96-103.

For data set [3], the system named is blood glucose concentration of starch-fed rats. In words: Action on the blood glucose concentration of starch-fed rats. It counts as in vivo, male Wistar rats. To be noted: for Blood glucose: 2 g/kg starch, mean ± SEM, n = 7.
Source text: as §1, §2, §3

A further data set has as its system experimental animals. In words: Oral administration of high doses to experimental animals (symptoms). It counts as in vivo. To be noted: even high doses.
The target of data set [4] is T2, α-Amylase from the pig pancreas (Sus scrofa, UniProt P00690).
T2 construct: from tissue; host or cells: pig pancreas
T2 sequence (P00690 16-511): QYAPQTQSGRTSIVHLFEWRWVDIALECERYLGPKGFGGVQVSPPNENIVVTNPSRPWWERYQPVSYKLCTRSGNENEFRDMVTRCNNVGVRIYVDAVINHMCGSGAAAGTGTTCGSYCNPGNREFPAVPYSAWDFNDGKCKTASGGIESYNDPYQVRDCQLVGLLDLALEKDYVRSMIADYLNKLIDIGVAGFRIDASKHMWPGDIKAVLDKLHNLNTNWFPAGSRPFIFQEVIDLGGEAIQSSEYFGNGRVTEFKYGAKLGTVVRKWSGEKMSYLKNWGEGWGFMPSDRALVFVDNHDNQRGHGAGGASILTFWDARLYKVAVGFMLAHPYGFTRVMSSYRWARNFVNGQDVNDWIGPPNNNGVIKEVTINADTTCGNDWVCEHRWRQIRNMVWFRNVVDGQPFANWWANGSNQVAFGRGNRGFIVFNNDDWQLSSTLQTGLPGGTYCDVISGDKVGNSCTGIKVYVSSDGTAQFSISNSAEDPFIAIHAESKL
In words: Amylase test (inhibition of α-amylase, soluble starch according to Zulkowski, dinitrosalicylic acid). To be noted: for specific activity, α-amylase inhibitor units (AIU) per mg: 1 AIU = amount inhibiting two amylase units to 50%, 37° C., pH 6.9. It counts as biochemical. As for the experimental part: as §4
An amylase inhibitor unit (AIU) is defined as the amount of inhibitor which is capable of inhibiting two amylase units (AU) to 50% under the test conditions. According to international agreement, one amylase unit is the amount enzyme which cleaves 1 μequivalent of glucoside bonds in the starch in one minute. The μgram-equivalents of cleaved glucoside bonds are determined photometrically using dinitrosalicylic acid as the μgram-equivalents of reducing sugars. The data are calculated as μmoles of maltose, determined with reference to a maltose calibration line.
The tests are carried out as follows:
α-Amylase from the pig pancreas and the solutions to be tested are preincubated together at 37° C. for 10-20 minutes in 1.0 ml of 20 mM phosphate buffer, pH 6.9+10 mM of NaCl. The enzymatic reaction is initiated according to Zulkowski by adding 1.0 ml of soluble starch (0.25% in the buffer specified). After exactly 10 minutes, the reaction is terminated using 2.0 ml of dinitrosalicylic acid coloring reagent (according to Boehringer Mannheim: BiochemicaInformation II) and the mixture is heated for 5 minutes in a boiling water bath to develop the color. After cooling, the extinction is measured at 546 nm against the blank reagent. 50% inhibition is determined graphically compared to the uninhibited enzyme reaction by means of the probability plot by using various amounts of inhibitor.

Structures can show the parent of a compound that is named as a salt.

Turning to `CC1OC(OC2C(CO)OC(O)C(O)C2O)C(O)C(O)C1NC1C(O)C(O)C(OC2OC(CO)C(OC3OC(C)C(NC4C(O)C(O)C(O)C5(CO)OC45)C(O)C3O)C(O)C2O)C2(CO)OC12` (centres unmarked) [W-46 H], the minimal effective dose in data set [1] (Rattus norvegicus, po, 1 h, sucrose-fed rats, p.o., calculated from Table 2, read-out: limiting value (amount per kg at whose administration a clear action can still be seen after one hour)) was 1.29 mg/kg; in data set [3] (Rattus norvegicus, po, 1 h, starch-fed rats, p.o., calculated from Table 1, read-out: limiting value (amount per kg at whose administration a clear action can still be seen after one hour)), 0.27 mg/kg. The Blood glucose in data set [1] (p.o. dose 1 mg/kg, 0 minutes) is on record as 3.99 ± 0.10 mmol/1; in data set [1] (p.o. dose 1 mg/kg, 15 minutes), 6.07 ± 0.28 mmol/1; in data set [1] (p.o. dose 1 mg/kg, 30 minutes), 6.01 ± 0.22 mmol/1; in data set [1] (p.o. dose 1 mg/kg, 60 minutes) it was 6.34 ± 0.14 mmol/1; in data set [1] (p.o. dose 1 mg/kg, 120 minutes), 5.45 ± 0.13 mmol/1; in data set [1] (p.o. dose 1 mg/kg, 240 minutes), 4.57 ± 0.07 mmol/1. The Blood glucose is on record as 3.94 ± 0.14 mmol/1 in data set [1] (p.o. dose 3 mg/kg, 0 minutes); 5.71 ± 0.23 mmol/1 in data set [1] (p.o. dose 3 mg/kg, 15 minutes); 5.53 ± 0.19 mmol/1 in data set [1] (p.o. dose 3 mg/kg, 30 minutes); 5.47 ± 0.15 mmol/1 in data set [1] (p.o. dose 3 mg/kg, 60 minutes); 5.20 ± 0.16 mmol/1 in data set [1] (p.o. dose 3 mg/kg, 120 minutes); 4.83 ± 0.15 mmol/1 in data set [1] (p.o. dose 3 mg/kg, 240 minutes). Also, the Blood glucose in data set [1] (p.o. dose 10 mg/kg, 0 minutes) amounted to 4.01 ± 0.15 mmol/1; in data set [1] (p.o. dose 10 mg/kg, 15 minutes) it was 5.06 ± 0.20 mmol/1; in data set [1] (p.o. dose 10 mg/kg, 30 minutes), 5.11 ± 0.10 mmol/1; in data set [1] (p.o. dose 10 mg/kg, 60 minutes), 4.82 ± 0.09 mmol/1; in data set [1] (p.o. dose 10 mg/kg, 120 minutes), 4.50 ± 0.11 mmol/1; in data set [1] (p.o. dose 10 mg/kg, 240 minutes), 4.29 ± 0.22 mmol/1. Besides, the Blood glucose in data set [3] (p.o. dose 0.3 mg/kg, 0 hours) was 3.77 ± 0.09 mmol/L; in data set [3] (p.o. dose 0.3 mg/kg, 0.5 hours), 5.53 ± 0.17 mmol/L; in data set [3] (p.o. dose 0.3 mg/kg, 1 hour) it was 5.59 ± 0.06 mmol/L; in data set [3] (p.o. dose 0.3 mg/kg, 2 hours), 5.67 ± 0.13 mmol/L; in data set [3] (p.o. dose 0.3 mg/kg, 3 hours), 4.86 ± 0.18 mmol/L; in data set [3] (p.o. dose 0.3 mg/kg, 5 hours), 4.39 ± 0.13 mmol/L. Moreover, the Blood glucose in data set [3] (p.o. dose 1.0 mg/kg, 0 hours) came to 3.93 ± 0.10 mmol/L; in data set [3] (p.o. dose 1.0 mg/kg, 0.5 hours), 5.04 ± 0.08 mmol/L; in data set [3] (p.o. dose 1.0 mg/kg, 1 hour) it was 5.07 ± 0.09 mmol/L; in data set [3] (p.o. dose 1.0 mg/kg, 2 hours), 4.99 ± 0.14 mmol/L; in data set [3] (p.o. dose 1.0 mg/kg, 3 hours) it was 4.57 ± 0.10 mmol/L; in data set [3] (p.o. dose 1.0 mg/kg, 5 hours) it was 4.13 ± 0.08 mmol/L. Moreover, the “inhibition of the disaccharidases from the small intestine mucosa, in particular the saccharase (in words)” value in data set [2] is recorded as “strongly inhibit”. For the same compound, the “specific activity, saccharase inhibitor units (SIU) per mg” value in data set [2] and in data set [2] (listed as W-46 H (free base)) was 1×10^4 SIU/mg throughout. In the data set with experimental animals, the “striking symptoms after oral administration” value is on record as “not possible to detect striking symptoms”. Also, the “inhibition of the α-amylase from the pancreas (in words)” value in data set [4] is “strongly inhibit”. The “specific activity, α-amylase inhibitor units (AIU) per mg” value in data set [4] and in data set [4] (listed as W-46 H (free base)) was 4×10^4 AIU/mg throughout.

Turning to `CC1OC(OC2C(CO)OC(O)C(O)C2O)C(O)C(O)C1NC1C(O)C(O)C(OC2OC(CO)C(OC3OC(C)C(NC4C(O)C(O)C(O)C5(CO)OC45)C(O)C3O)C(O)C2O)C2(CO)OC12` (centres unmarked) [W-46 H glucuronate], the “specific activity, saccharase inhibitor units (SIU) per mg” value in data set [2] was 9×10^3 SIU/mg. The “specific activity, α-amylase inhibitor units (AIU) per mg” value in data set [4] was 3.6×10^4 AIU/mg.

For the compound `CC1OC(OC2C(CO)OC(O)C(O)C2O)C(O)C(O)C1NC1C(O)C(O)C(OC2OC(CO)C(OC3OC(C)C(NC4C(O)C(O)C(O)C5(CO)OC45)C(O)C3O)C(O)C2O)C2(CO)OC12` (centres unmarked) [W-46 H chloride], in data set [2], the “specific activity, saccharase inhibitor units (SIU) per mg” value is on record as 1×10^4 SIU/mg. Besides, in data set [4], the “specific activity, α-amylase inhibitor units (AIU) per mg” value was 3.9×10^4 AIU/mg.

Turning to `CC1OC(OC2C(CO)OC(O)C(O)C2O)C(O)C(O)C1NC1C(O)C(O)C(OC2OC(CO)C(OC3OC(C)C(NC4C(O)C(O)C(O)C5(CO)OC45)C(O)C3O)C(O)C2O)C2(CO)OC12` (centres unmarked) [W-46 H sulfate], the “specific activity, saccharase inhibitor units (SIU) per mg” value in data set [2] is 9.6×10^3 SIU/mg. Further, the “specific activity (α-amylase inhibitor units)” value in data set [4] (sulfate, printed without per mg) is listed as 3.8×10^4 AIU.

For `CC1OC(O)C(O)C(O)C1NC1C(O)C(O)C(OC2OC(CO)C(OC3OC(C)C(NC4C(O)C(O)C(O)C5(CO)OC45)C(O)C3O)C(O)C2O)C2(CO)OC12` (centres unmarked) [W-46 P], in data set [2], the “inhibition of the disaccharidases from the small intestine mucosa, in particular the saccharase (in words)” value was “strongly inhibit” and the “specific activity, saccharase inhibitor units (SIU) per mg” value was 3×10^4 SIU/mg. In the data set on experimental animals, the “striking symptoms after oral administration” value is given as “not possible to detect striking symptoms”. In addition, in data set [4], the “inhibition of the α-amylase from the pancreas (in words)” value is given as “strongly inhibit” and the “specific activity, α-amylase inhibitor units (AIU) per mg” value is 1×10^4 AIU/mg.
